Data as given in patent US10195185B2, “3-(1H-imidazo[4,5-C]pyridin-2-yl)-1H-pyrazolo[4,3-B]pyridines and therapeutic uses thereof” (Samumed, LLC, priority 2015, dated 2019).

Test system: Primary human fibroblasts derived from IPF patients (LL29 cells) treated with TGF-β1
Experiment: Inhibition of the fibrotic process: αSMA staining in TGF-β1 treated fibroblasts
Assay type: cell-based
Details: Fibroblast, 96 h, LL29 fibroblasts treated with TGF-β1, 4 days; for inhibition at 10 µM: read-out: percent inhibition in brackets beside EC50 >10 μM
From the text: Representative compounds were screened using primary human fibroblasts (derived from IPF patients) treated with TGF-β1 to determine their ability to inhibit the fibrotic process.
Primary human fibroblasts derived from IPF patients (LL29 cells) [^1Xiaoqiu Liu, et. al., “Fibrotic Lung Fibroblasts Show Blunted Inhibition by cAMP Due to Deficient cAMP Response Element-Binding Protein Phosphorylation”, Journal of Pharmacology and Experimental Therapeutics (2005), 315(2), 678-687; ^2Watts, K. L., et. al., “RhoA signaling modulates cyclin D1 expression in human lung fibroblasts; implications for idiopathic pulmonary fibrosis”, Respiratory Research (2006), 7(1), 88] were obtained from American Type Culture Collection (ATCC) and expanded in F12 medium supplemented with 15% Fetal Bovine Serum and Penicillin/Streptomycin.
Each compound was dissolved in DMSO as a 10 mM stock and used to prepare compound source plates. Serial dilution (1:2, 11-point dose-response curves from 10 μM to 1.87 nM) and compound transfer was performed using the ECHO 550 (Labcyte, Sunnyvale, Calif.) into 384-well clear bottom assay plates (Greiner Bio-One) with appropriate DMSO backfill for a final DMSO concentration of 0.1%. LL29 cells are plated at 1,500 cells/well in 80 μL/well F12 medium supplemented with 1% Fetal Bovine Serum. One hour after addition of the cells, TGF-β1 (Peprotech; 20 ng/mL) was added to the plates to induce fibrosis (ref. 1 and 2 above). Wells treated with TGF-β1 and containing DMSO were used as controls. Cells were incubated at 37° C. and 5% CO2 for 4 days. Following incubation for 4 days, SYTOX green nucleic acid stain (Life Technologies [Thermo Fisher Scientific]) was added to the wells at a final concentration of 1 μM and incubated at room temperature for 30 min. Cells were then fixed using 4% formaldehyde (Electron Microscopy Sciences), washed 3 times with PBS followed by blocking and permeabilization using 3% Bovine Serum Albumin (BSA; Sigma) and 0.3% Triton X-100 (Sigma) in PBS. Cells were then stained with antibody specific to α-smooth muscle actin (αSMA; Abcam) (ref. 1 and 2 above) in 3% Bovine Serum Albumin (BSA; Sigma) and 0.3% Triton X-100 (Sigma) in PBS, and incubated overnight at 4° C. Cells were then washed 3 times with PBS, followed by incubation with Alexa Flor-647 conjugated secondary antibody (Life Technologies [Thermo Fisher Scientific]) and DAPI at room temperature for 1 hour. Cells were then washed 3 times with PBS and plates were sealed for imaging. αSMA staining was imaged by excitation at 630 nm and emission at 665 nm and quantified using the Compartmental Analysis program on the CellInsight CX5 (Thermo Scientific). Dead or apoptotic cells were excluded from analysis based on positive SYTOX green staining. % of total cells positive for αSMA were counted in each well and normalized to the average of 11 wells treated with TGF-β1 on the same plate using Dotmatics' Studies Software. The normalized averages (fold change over untreated) of 3 replicate wells for each compound concentration were used to create dose-responses curves and EC50 values were calculated using non-linear regression curve fit in the Dotmatics' Studies Software. For EC50 of >10 μM, the percent inhibition at 10 μM is provided.

Compound: Cn1cc(-c2ccc3[nH]nc(-c4nc5c(-c6cccs6)nccc5[nH]4)c3n2)cn1 [Compound 700, 5-(1-Methyl-1H-pyrazol-4-yl)-3-(4-(thiophen-2-yl)-1H-imidazo[4,5-c]pyridin-2-yl)-1H-pyrazolo[4,3-b]pyridine]
- EC50: 0.224 µM

Compound: Cn1cc(-c2ccc3[nH]nc(-c4nc5c(-c6ccc7c(c6)OCO7)nccc5[nH]4)c3n2)c(CO)n1 [Compound 1151, (4-(3-(4-(Benzo[d][1,3]dioxol-5-yl)-1H-imidazo[4,5-c]pyridin-2-yl)-1H-pyrazolo [4,3-b]pyridin-5-yl)-1-methyl-1H-pyrazol-3-yl)methanol]
- EC50: > 10 µM
- inhibition at 10 µM: 0%

Compound: c1cc2[nH]c(-c3n[nH]c4ccc(-c5cn[nH]c5)nc34)nc2cn1 [Compound 651, 3-(1H-Imidazo[4,5-c]pyridin-2-yl)-5-(1H-pyrazol-4-yl)-1H-pyrazolo[4,3-b]pyridine]
- EC50: > 10 µM
- inhibition at 10 µM: 16.4%

Compound: O=C(Nc1cncc(-c2ccc3[nH]nc(-c4nc5c(N6CCCCC6)nccc5[nH]4)c3n2)c1)C1CC1 [Compound 188, N-(5-(3-(4-(Piperidin-1-yl)-1H-imidazo[4,5-c]pyridin-2-yl)-1H-pyrazolo [4,3-b]pyridin-5-yl)pyridin-3-yl)cyclopropanecarboxamide]
- EC50: > 10 µM
- inhibition at 10 µM: 0%

Compound: Cn1cc(-c2ccc3[nH]nc(-c4nc5c(-c6ccc(F)cc6)nccc5[nH]4)c3n2)c(CO)n1 [Compound 1128, (4-(3-(4-(4-Fluorophenyl)-1H-imidazo[4,5-c]pyridin-2-yl)-1H-pyrazolo[4,3-b]pyridin-5-yl)-1-methyl-1H-pyrazol-3-yl)methanol]
- EC50: 2.67 µM

Compound: O=C(CC1CCNCC1)Nc1cncc(-c2ccc3[nH]nc(-c4nc5c(-c6ccsc6)nccc5[nH]4)c3n2)c1 [Compound 673, 2-(Piperidin-4-yl)-N-(5-(3-(4-(thiophen-3-yl)-1H-imidazo[4,5-c]pyridin-2-yl)-1H-pyrazolo[4,3-b]pyridin-5-yl)pyridin-3-yl)acetamide]
- EC50: 1.07 µM

Compound: c1cc2[nH]c(-c3n[nH]c4ccc(-c5cncc(CNCC6CCCC6)c5)nc34)nc2c(-c2ccoc2)n1 [Compound 333, 1-Cyclopentyl-N-((5-(3-(4-(furan-3-yl)-1H-imidazo[4,5-c]pyridin-2-yl)-1H-pyrazolo [4,3-b]pyridin-5-yl)pyridin-3-yl)methyl)methanamine]
- EC50: > 10 µM
- inhibition at 10 µM: 46.9%

Compound: CN1CCN(c2nccc3[nH]c(-c4n[nH]c5ccc(-c6cnccn6)nc45)nc23)CC1 [Compound 648, 3-(4-(4-Methylpiperazin-1-yl)-1H-imidazo[4,5-c]pyridin-2-yl)-5-(pyrazin-2-yl)-1H-pyrazolo[4,3-b]pyridine]
- EC50: 6.47 µM

Compound: c1cc(-c2ccc3[nH]nc(-c4nc5c(-c6ccncc6)nccc5[nH]4)c3n2)ccn1 [Compound 130, 5-(pyridin-4-yl)-3-(4-(pyridin-4-yl)-1H-imidazo[4,5-c]pyridin-2-yl)-1H-pyrazolo[4,3-b]pyridine]
- EC50: > 10 µM
- inhibition at 10 µM: 15.3%

Compound: CC(C)(C)CC(=O)Nc1cncc(-c2ccc3[nH]nc(-c4nc5c(-c6ccccc6F)nccc5[nH]4)c3n2)c1 [Compound 72, N-(5-(3-(4-(2-fluorophenyl)-1H-imidazo[4,5-c]pyridin-2-yl)-1H-pyrazolo [4,3-b]pyridin-5-yl)pyridin-3-yl)-3,3-dimethylbutanamide]
- EC50: > 10 µM
- inhibition at 10 µM: 0%

Compound: Fc1ccccc1-c1nccc2[nH]c(-c3n[nH]c4ccc(-c5ccccn5)nc34)nc12 [Compound 84, 3-(4-(2-Fluorophenyl)-1H-imidazo[4,5-c]pyridin-2-yl)-5-(pyridin-2-yl)-1H-pyrazolo[4,3-b]pyridine]
- EC50: > 10 µM
- inhibition at 10 µM: 18.1%

Compound: NC1CN(c2cncc(-c3ccc4[nH]nc(-c5nc6c(-c7ccc(Cl)s7)nccc6[nH]5)c4n3)n2)C1 [Compound 1068, 1-(6-(3-(4-(5-Chlorothiophen-2-yl)-1H-imidazo[4,5-c]pyridin-2-yl)-1H-pyrazolo[4,3-b]pyridin-5-yl)pyrazin-2-yl)azetidin-3-amine]
- EC50: 3.99 µM

Compound: CN1CCN(c2nccc3[nH]c(-c4n[nH]c5ccc(-c6cncnc6)nc45)nc23)CC1 [Compound 251, 3-(4-(4-Methylpiperazin-1-yl)-1H-imidazo[4,5-c]pyridin-2-yl)-5-(pyrimidin-5-yl)-1H-pyrazolo[4,3-b]pyridine]
- EC50: > 10 µM
- inhibition at 10 µM: 17.7%

Compound: CS(=O)(=O)NCc1cc(F)cc(-c2nccc3[nH]c(-c4n[nH]c5ccc(-c6cncc(NC(=O)CC7CCNCC7)c6)nc45)nc23)c1 [Compound 769, N-(5-(3-(4-(3-Fluoro-5-(methylsulfonamidomethyl)phenyl)-1H-imidazo[4,5-c]pyridin-2-yl)-1H-pyrazolo[4,3-b]pyridin-5-yl)pyridin-3-yl)-2-(piperidin-4-yl)acetamide]
- EC50: 5.05 µM

Compound: O=C(Nc1cncc(-c2ccc3[nH]nc(-c4nc5cnccc5[nH]4)c3n2)c1)C1CCCCC1 [Compound 275, N-(5-(3-(1H-Imidazo[4,5-c]pyridin-2-yl)-1H-pyrazolo[4,3-b]pyridin-5-yl)pyridin-3-yl)cyclohexanecarboxamide]
- EC50: > 10 µM
- inhibition at 10 µM: 28.8%

Compound: Oc1cncc(-c2ccc3[nH]nc(-c4nc5cnccc5[nH]4)c3n2)c1 [Compound 661, 5-(3-(1H-Imidazo[4,5-c]pyridin-2-yl)-1H-pyrazolo[4,3-b]pyridin-5-yl) pyridin-3-ol]
- EC50: > 10 µM
- inhibition at 10 µM: 0%

Compound: O=C(Nc1cncc(-c2ccc3[nH]nc(-c4nc5c(-c6ccsc6)nccc5[nH]4)c3n2)c1)c1ccccc1 [Compound 291, N-(5-(3-(4-(Thiophen-3-yl)-1H-imidazo[4,5-c]pyridin-2-yl)-1H-pyrazolo [4,3-b]pyridin-5-yl)pyridin-3-yl)benzamide]
- EC50: > 10 µM
- inhibition at 10 µM: 0%

Compound: O=C(Nc1cncc(-c2ccc3[nH]nc(-c4nc5c(-c6ccncc6)nccc5[nH]4)c3n2)c1)C1CCCCC1 [Compound 135, N-(5-(3-(4-(pyridin-4-yl)-1H-imidazo[4,5-c]pyridin-2-yl)-1H-pyrazolo[4,3-b]pyridin-5-yl)pyridin-3-yl)cyclohexanecarboxamide]
- EC50: > 10 µM
- inhibition at 10 µM: 0%

Compound: COc1cccc(-c2nccc3[nH]c(-c4n[nH]c5ccc(-c6cncc(NC(=O)CC(C)(C)C)c6)nc45)nc23)c1 [Compound 1006, N-(5-(3-(4-(3-methoxyphenyl)-1H-imidazo[4,5-c]pyridin-2-yl)-1H-pyrazolo [4,3-b]pyridin-5-yl)pyridin-3-yl)-3,3-dimethylbutanamide]
- EC50: 2.5 µM

Compound: COc1cncc(-c2ccc3[nH]nc(-c4nc5c(-c6ccoc6)nccc5[nH]4)c3n2)c1 [Compound 692, 3-(4-(Furan-3-yl)-1H-imidazo[4,5-c]pyridin-2-yl)-5-(5-methoxypyridin-3-yl)-1H-pyrazolo[4,3-b]pyridine]
- EC50: 0.334 µM

Compound: c1ccc(CNCc2cncc(-c3ccc4[nH]nc(-c5nc6c(-c7ccsc7)nccc6[nH]5)c4n3)c2)cc1 [Compound 304, N-Benzyl-1-(5-(3-(4-(thiophen-3-yl)-1H-imidazo[4,5-c]pyridin-2-yl)-1H-pyrazolo [4,3-b]pyridin-5-yl)pyridin-3-yl)methanamine]
- EC50: 6.56 µM

Compound: c1cc2[nH]c(-c3n[nH]c4ccc(-c5cncc(OCCN6CCCC6)c5)nc34)nc2c(-c2ccoc2)n1 [Compound 690, 3-(4-(Furan-3-yl)-1H-imidazo[4,5-c]pyridin-2-yl)-5-(5-(2-(pyrrolidin-1-yl)ethoxy)pyridin-3-yl)-1H-pyrazolo[4,3-b]pyridine]
- EC50: > 10 µM
- inhibition at 10 µM: 42.6%

Compound: Cn1cc(-c2ccc3[nH]nc(-c4nc5c(N6CCCCC6)nccc5[nH]4)c3n2)c(CO)n1 [Compound 1133, (1-Methyl-4-(3-(4-(piperidin-1-yl)-1H-imidazo[4,5-c]pyridin-2-yl)-1H-pyrazolo [4,3-b]pyridin-5-yl)-1H-pyrazol-3-yl)methanol]
- EC50: 1.06 µM
